# Biological target: T1, human neurotrypsin (Homo sapiens, UniProt P56730)
# T1 sequence (P56730 21-875): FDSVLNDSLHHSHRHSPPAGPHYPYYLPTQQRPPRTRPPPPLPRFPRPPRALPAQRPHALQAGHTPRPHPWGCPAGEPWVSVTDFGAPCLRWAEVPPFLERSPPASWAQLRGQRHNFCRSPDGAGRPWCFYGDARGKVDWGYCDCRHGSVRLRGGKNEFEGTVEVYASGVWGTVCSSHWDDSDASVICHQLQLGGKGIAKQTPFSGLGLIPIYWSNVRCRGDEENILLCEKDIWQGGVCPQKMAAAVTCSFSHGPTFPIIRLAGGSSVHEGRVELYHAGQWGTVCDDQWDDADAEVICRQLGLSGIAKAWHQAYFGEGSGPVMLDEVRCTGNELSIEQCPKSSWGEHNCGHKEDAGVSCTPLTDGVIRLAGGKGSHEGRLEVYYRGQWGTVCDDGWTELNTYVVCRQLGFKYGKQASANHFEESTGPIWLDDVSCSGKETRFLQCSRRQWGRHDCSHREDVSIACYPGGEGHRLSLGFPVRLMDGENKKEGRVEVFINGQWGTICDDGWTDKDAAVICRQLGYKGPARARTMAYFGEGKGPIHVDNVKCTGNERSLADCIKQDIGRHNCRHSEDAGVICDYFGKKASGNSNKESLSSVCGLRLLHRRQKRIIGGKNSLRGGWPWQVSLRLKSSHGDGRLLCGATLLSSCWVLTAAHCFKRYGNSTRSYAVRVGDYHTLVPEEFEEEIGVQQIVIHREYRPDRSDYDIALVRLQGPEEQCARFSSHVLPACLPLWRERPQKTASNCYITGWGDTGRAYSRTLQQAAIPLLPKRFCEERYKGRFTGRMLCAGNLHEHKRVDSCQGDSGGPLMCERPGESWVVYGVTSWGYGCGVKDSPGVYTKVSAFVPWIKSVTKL
# Test: Determination of IC50 for human neurotrypsin
# Assay type: biochemical
# Settings: human neurotrypsin; method of WO 2006/1103261; read-out: Neurotrypsin IC50
# Description: Assessment of the potency of compounds of examples 1-311 in inhibiting the enzymatic activity of human neurotrypsin was performed according to the method described in patent application WO 2006/1103261
row,IC50,Compound
1,6.5 µM,"O=C(NC1Cc2ccccc2C1)c1ccc(NC(=O)c2sc3ccccc3c2Cl)c(C(=O)O)c1 [Example 159, 2-(3-Chlorobenzo[b]-thiophene-2-carboxamido)-5-(indan-2-ylcarbamoyl)benzoic acid]"
2,9 µM,O=C(Nc1ncc(Cl)s1)c1ccc(C(=O)O)c(NC(=O)c2sc3ccccc3c2Cl)c1 [Example 59]
3,0.5 µM,N#Cc1ccc(-c2ccc(C(=O)O)c(NC(=O)c3ccc(-c4nc5cc(Cl)c(Cl)cc5[nH]4)cc3)c2)cc1 [Example 267]
4,5 µM,"O=C(Nc1ncc(Cl)s1)c1ccc(C(=O)O)c(NC(=O)c2ccc(-c3ccc(F)cc3)s2)c1 [Example 27, 4-(5-Chlorothiazol-2-yl-carbamoyl)-2-(5-(4-fluorophenyl)thiophene-2-carboxamido)benzoic acid]"
5,16.5 µM,"O=C(Nc1ccccn1)c1ccc(C(=O)O)c(NC(=O)c2sc3ccccc3c2Cl)c1 [Example 149, 2-(3-Chloro-benzo[b]-thiophene-2-carboxamido)-4-(pyridin-2-ylcarbamoyl)-benzoic acid]"
6,0.5 µM,"O=C(COc1ccc(NC(=O)c2ccc(-c3nc4cc(Cl)c(Cl)cc4[nH]3)cc2)c(C(=O)O)c1)Nc1ccc(Cl)cc1 [Example 311, 5-(4-Chlorophenylcarbamoylmethoxy)-2-(4-(5,6-dichloro-1H-benzo[d]imidazol-2-yl)benzamido)benzoic acid]"
7,3.5 µM,O=C(Nc1cc(NC(=O)c2sc3ccccc3c2Cl)ccc1C(=O)O)c1ccc(Cl)cc1 [Example 277]
8,4.8 µM,O=C(Nc1ccc(Oc2cccnc2)cc1)c1ccc(C(=O)O)c(NC(=O)c2sc3ccccc3c2Cl)c1 [Example 84]
9,0.5 µM,"O=C(Nc1ccc(Cl)cc1F)c1ccc(NC(=O)c2ccc(-c3nc4cc(Cl)c(Cl)cc4[nH]3)cc2)c(C(=O)O)c1 [Example 51, 5-(4-Chloro-2-fluorophenyl-carbamoyl)-2-(4-(5,6-dichloro-1H-benzo[d]-imidazol-2-yl)benzamido)-benzoic acid]"
10,3.1 µM,N#Cc1ccc(-c2ccc(C(=O)O)c(NC(=O)c3sc4ccccc4c3Cl)c2)cc1 [Example 255]
11,1.2 µM,COC(=O)c1cc(OCC(=O)O)c(C(=O)Nc2ccc(Cl)cc2)cc1NC(=O)c1ccc(-c2nc3cc(Cl)c(Cl)cc3n2C)cc1 [Example 305]
12,3.2 µM,"O=C(O)c1cc(C(=O)N2CCC(c3c(Cl)cccc3Cl)CC2)ccc1NC(=O)c1sc2ccccc2c1Cl [Example 35, 2-(3-Chlorobenzo[b]-thiophene-2-carboxamido)-5-(4-(2,6-dichlorophenyl)-piperidine-1-carbonyl)benzoic acid]"
13,9.7 µM,"3-Chloro-N-(5-(5-chloro-1,3-thiazol-2-ylcarbamoyl)-2-(2H-tetrazol-5-yl)phenyl)benzo[b]-thiophene-2-carboxamide [Example 227]"
14,5.3 µM,O=C(NCc1ccccc1)c1ccc(NC(=O)c2ccc(-c3nc4cc(Cl)c(Cl)cc4[nH]3)cc2)c(C(=O)O)c1 [Example 132]
15,19.2 µM,CC(C)(C)Oc1ccc(NC(=O)c2ccc(C(=O)O)c(NC(=O)c3sc4ccccc4c3Cl)c2)cc1 [Example 78]
16,4.9 µM,Cc1cccc(C)c1C1CCN(C(=O)c2ccc(NC(=O)c3sc4ccccc4c3Cl)c(C(=O)O)c2)CC1 [Example 121]
17,11 µM,O=C(O)c1ccc(-c2cn(Cc3c(F)cccc3F)nn2)cc1NC(=O)c1sc2ccccc2c1Cl [Example 260]
18,98.4 µM,O=C(O)c1ccc(/C=C/Cc2ccccc2)cc1NC(=O)c1sc2ccccc2c1Cl [Example 246]
19,8.9 µM,"O=C(NCc1c(F)cccc1F)c1ccc(NC(=O)c2cc3ccc(Cl)cc3s2)c(C(=O)O)c1 [Example 165, 2-(6-Chlorobenzo[b]-thiophene-2-carboxamido)-5-(2,6-difluorobenzyl-carbamoyl)benzoic acid]"
20,6.8 µM,"O=C(O)c1ccc(C(=O)Nc2ccc(Cl)cc2)c(NC(=O)c2sc3ccccc3c2Cl)c1 [Example 188, 3-(3-Chlorobenzo[b]-thiophene-2-carboxamido)-4-(4-chlorophenylcarbamoyl)-benzoic acid]"
21,5.5 µM,O=C(O)c1ccc(-c2cn(-c3ccc(Cl)c(C(F)(F)F)c3)nn2)cc1NC(=O)c1sc2ccccc2c1Cl [Example 261]
22,3.5 µM,"O=C(Nc1ccc(C(=O)N2CCC(Cc3ccc(Cl)cc3)CC2)cc1C(=O)O)c1cc2ccc(Cl)cc2s1 [Example 164, 2-(6-Chlorobenzo[b]-thiophene-2-carboxamido)-5-(4-(4-chlorobenzyl)piperidine-1-carbonyl)benzoic acid]"

row,IC50,Compound
1,4.3 µM,"O=C(NCc1ccc(Cl)cc1)c1ccc(C(=O)O)c(NC(=O)c2sc3ccccc3c2Cl)c1 [Example 148, 2-(3-Chloro-benzo[b]-thiophene-2-carboxamido)-4-(4-chlorobenzylcarbamoyl)-benzoic acid]"
2,1.2 µM,O=C(NCC1CCCCC1)c1ccc(NC(=O)c2ccc(-c3nc4cc(Cl)c(Cl)cc4[nH]3)cc2)c(C(=O)O)c1 [Example 126]
3,4.1 µM,CC(Nc1ccc(C(=O)O)c(NC(=O)c2sc3ccccc3c2Cl)c1)c1ccc(Cl)cc1 (stereo not shown) [Example 290]
4,0.8 µM,"O=C(Nc1ccc(Cl)cc1)c1ccc(C(=O)O)c(NC(=O)c2ccc(-c3nc4cc(Cl)c(Cl)cc4[nH]3)cc2)c1 [Example 40, 4-(4-Chlorophenyl-carbamoyl)-2-(4-(5,6-di-chloro-1H-benzo[d]imidazol-2-yl)benzamido)benzoic acid]"
5,3.2 µM,"O=C(Nc1ccc(Cl)cc1)c1ccc(NC(=O)c2sc3ccccc3c2Cl)c(C(=O)O)c1 [Example 26, 2-(3-Chlorobenzo[b]-thiophene-2-carboxamido)-5-(4-chlorophenylcarbamoyl)-benzoic acid]"
6,7.6 µM,CC(C)CNC(=O)c1ccc(NC(=O)c2ccc(-c3nc4cc(Cl)c(Cl)cc4[nH]3)cc2)c(C(=O)O)c1 [Example 130]
7,6.3 µM,O=C(Nc1ccc(Cl)cc1)Nc1ccc(C(=O)O)c(NC(=O)c2sc3ccccc3c2Cl)c1 [Example 276]
8,13.6 µM,"O=C(NC1CCCc2ccccc21)c1ccc(C(=O)O)c(NC(=O)c2sc3ccccc3c2Cl)c1 (stereo not shown) [Example 32, 2-(3-Chlorobenzo[b]-thiophene-2-carboxamido)-4-(1,2,3,4-tetrahydro-naphthalen-1-ylcarbamoyl)-benzoic acid]"
9,4.4 µM,"CC(C)CN(CC(C)C)C(=O)c1ccc(NC(=O)c2ccc(-c3nc4cc(Cl)c(Cl)cc4[nH]3)c(O)c2)c(C(=O)O)c1 [Example 42, 2-(4-(5,6-Dichloro-1H-benzo[d]imidazol-2-yl)-3-hydroxybenzamido)-5-(diisobutylcarbamoyl)benzoic acid]"
10,3.4 µM,O=C(Nc1cc(N2CC(c3ccc(Cl)cc3)CC2=O)ccc1C(=O)O)c1ccc(-c2ccc(Cl)cc2)s1 (stereo not shown) [Example 283]
11,3.9 µM,O=C(O)c1cc(C(=O)N2CCC(c3ccc(Cl)cc3)C2)ccc1NC(=O)c1sc2ccccc2c1Cl (stereo not shown) [Example 108]
12,0.9 µM,O=C(Nc1ccc(Cl)cc1F)c1ccc(NC(=O)c2[nH]c3ccc(Cl)cc3c2-c2ccccc2)c(C(=O)O)c1 [Example 140]
13,130 µM,"O=C(Nc1ccc(CCc2ccccc2)cc1)c1ccc(C(=O)O)c(NC(=O)c2sc3ccccc3c2Cl)c1 [Example 63, 2-(3-Chlorobenzo[b]-thiophene-2-carboxamido)-4-(4-phenethylphenyl-carbamoyl)benzoic acid]"
14,10.7 µM,O=C(Nc1ccc(Cc2ccccc2)cc1)c1ccc(C(=O)O)c(NC(=O)c2sc3ccccc3c2Cl)c1 [Example 67]
15,7.3 µM,O=C(Nc1cccc(Oc2ccccc2)c1)c1ccc(C(=O)O)c(NC(=O)c2sc3ccccc3c2Cl)c1 [Example 65]
16,3.1 µM,O=C(O)c1cc(C(=O)N2CCC(c3ccc(Cl)cc3)CC2)ccc1NC(=O)c1sc2ccccc2c1Cl [Example 115]
17,4.5 µM,"O=C(Nc1ccc(C(=O)N2CCC(Oc3ccccc3)CC2)cc1C(=O)O)c1ccc(-c2ccc(Cl)cc2)s1 [Example 162, 2-(5-(4-Chlorophenyl)-thiophene-2-carboxamido)-5-(4-phenoxypiperidine-1-carbonyl)benzoic acid]"
18,1.5 µM,"CC(C)CN(C(=O)c1ccc(NC(=O)c2ccc(-c3nc4cc(Cl)c(Cl)cc4[nH]3)cc2)c(C(=O)O)c1)c1ccc(Cl)cc1 [Example 45, 5-(N-4-Chlorophenyl-N-isobutylcarbamoyl)-2-(4-(5,6-dichloro-1H-benzo[d]-imidazol-2-yl)benzamido)-benzoic acid]"
19,2.4 µM,O=C(O)c1ccc(-c2ccccc2Cl)cc1NC(=O)c1sc2ccccc2c1Cl [Example 250]
20,> 150 µM,"O=C(O)c1ccc(C(=O)Nc2ccc(Cl)cc2)c(NC(=O)c2ccc(-c3ccccc3)s2)c1 [Example 25, 4-(4-Chlorophenyl-carbamoyl)-3-(5-phenyl-thiophene-2-carboxamido)-benzoic acid]"
21,26.1 µM,O=C(O)CN(C(=O)c1ccc(C(=O)O)c(NC(=O)c2sc3ccccc3c2Cl)c1)c1ccc(Cl)cc1 [Example 74]

# — patent US20130261130A1, “NEUROTRYPSIN INHIBITORS” (priority 2010, published 2013)
